17 molecules from ChEMBL document CHEMBL1147409, “3-(4-Aminobutyn-1-yl)pyridines: binding at alpha 4 beta 2 nicotinic cholinergic receptors” (Bioorg Med Chem Lett, 2004) can be followed below.

The target of one assay is Neuronal acetylcholine receptor; alpha4/beta2 (Homo sapiens, UniProt P17787+P43681). Description: Binding affinity towards nicotinic acetylcholine receptor alpha4-beta2. The assay is classed as protein-complex assay.
Neuronal acetylcholine receptor; alpha4/beta2, sequence (P17787 whole entry): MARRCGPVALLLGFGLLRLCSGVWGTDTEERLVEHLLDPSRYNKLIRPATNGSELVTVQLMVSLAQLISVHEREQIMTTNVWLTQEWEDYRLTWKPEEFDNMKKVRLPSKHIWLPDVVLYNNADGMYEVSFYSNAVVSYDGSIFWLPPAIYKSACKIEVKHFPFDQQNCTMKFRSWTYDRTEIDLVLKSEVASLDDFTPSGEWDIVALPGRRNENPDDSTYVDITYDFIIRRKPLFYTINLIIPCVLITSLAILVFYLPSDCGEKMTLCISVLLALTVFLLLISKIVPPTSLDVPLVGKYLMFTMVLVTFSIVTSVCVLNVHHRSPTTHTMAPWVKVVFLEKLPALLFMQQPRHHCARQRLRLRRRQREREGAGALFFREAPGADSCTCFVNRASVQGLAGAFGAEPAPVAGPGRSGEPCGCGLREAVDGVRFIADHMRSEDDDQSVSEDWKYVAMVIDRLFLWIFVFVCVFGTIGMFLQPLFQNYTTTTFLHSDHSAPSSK
Neuronal acetylcholine receptor; alpha4/beta2, sequence (P43681 whole entry): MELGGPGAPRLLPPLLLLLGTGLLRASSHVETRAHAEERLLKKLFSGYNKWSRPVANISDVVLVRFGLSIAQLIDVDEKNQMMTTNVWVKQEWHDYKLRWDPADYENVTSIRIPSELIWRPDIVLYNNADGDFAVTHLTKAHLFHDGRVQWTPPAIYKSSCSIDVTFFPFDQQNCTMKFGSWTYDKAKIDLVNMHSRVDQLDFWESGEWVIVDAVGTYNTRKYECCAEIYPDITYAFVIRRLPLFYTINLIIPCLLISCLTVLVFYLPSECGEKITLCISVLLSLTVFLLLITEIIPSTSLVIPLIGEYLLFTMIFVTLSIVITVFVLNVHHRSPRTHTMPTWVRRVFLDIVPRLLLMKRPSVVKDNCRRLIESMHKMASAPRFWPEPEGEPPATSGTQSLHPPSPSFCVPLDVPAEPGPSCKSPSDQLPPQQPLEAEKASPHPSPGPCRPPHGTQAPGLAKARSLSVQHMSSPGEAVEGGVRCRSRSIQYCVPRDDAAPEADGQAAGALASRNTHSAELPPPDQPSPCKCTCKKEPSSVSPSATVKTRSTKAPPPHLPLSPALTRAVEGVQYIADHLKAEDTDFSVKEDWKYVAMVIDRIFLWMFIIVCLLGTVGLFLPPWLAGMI
`CNCC#Cc1cccnc1`: the affinity corresponds to a Ki of 2290 nM.
On the same count and under the same terms, with `CNC/C=C/c1cccnc1` the figure was approximately 6000 nM.
Still for that read-out and setting: then `CNCC/C=C/c1cccnc1` [RIVANICLINE], with 25 nM.

The target in a further assay is Neuronal acetylcholine receptor alpha4/beta2 (Rattus norvegicus). As to the kind of experiment: Binding affinity towards nicotinic acetylcholine receptor alpha4-beta2 from rat brain homogenates.
Take `CNCCOc1cccnc1`: the Ki turned out to be 35 nM.
Still for that read-out and setting: then `CNCCC#Cc1ccc(OC)nc1`, with more than 10000 nM; and `c1cncc(CN2CCCC2)c1`, with 30 nM; and `CN(C)CCC#Cc1cccnc1`, with 510 nM.
As for `C[N+](C)(C)CCC#Cc1cccnc1`, the affinity corresponds to a Ki of 470 nM.
On the same count and under the same terms, then `C(#Cc1cccnc1)CCN1CCCC1`, with more than 10000 nM.
In turn, `c1cncc(OCCN2CCCC2)c1` showed a Ki of 212 nM.
On the same count and under the same terms, then `CN(C)Cc1cccnc1`, with 540 nM; and `C[N+](C)(C)CCOc1cccnc1`, with 0.5 nM.
Molecule `CNCCC#Cc1ccc(Cl)nc1` came in with a Ki of 154 nM.
In turn, `C[N+](C)(C)Cc1cccnc1` returned a Ki of 110 nM.
The same measure, in the same setting: with `CNCc1cccnc1` the figure was more than 10000 nM; with `CCN(C)Cc1cccnc1`, 28 nM; with `CN(C)CCOc1cccnc1`, 21 nM.

A word on the Ki: it is the equilibrium dissociation constant of an inhibitor or competing ligand from its target. High values mean a looser hold on the target, low ones a stronger hold on the target.
